Test results reported in the supplement of paper PMC10307832.

Key:
Assay in all cases: relative viability (nuclei count vs DMSO), 5 days (fraction); higher = more cells survive
Erlotinib + Olaparib = compound: C#Cc1cccc(Nc2ncnc3cc(OCCOC)c(OCCOC)cc23)c1 [Erlotinib] + O=C(c1cc(Cc2n[nH]c(=O)c3ccccc23)ccc1F)N1CCN(C(=O)C2CC2)CC1 [Olaparib] (partner 8 µM)
Summary of the method: (§1)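 One day after seeding in 1536-well plates, lung cancer cell lines were dosed by pin tool. Dosing was either single-drug or a fixed anchor-drug dose plus five library-drug doses (not always all listed) in √10 steps. After 5 days, nuclei were stained in one fix-and-stain step and counted on 4× images, and relative viability is the nuclei count of treated wells over that of vehicle wells, given as the median of duplicate plates.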

Erlotinib + Dasatinib = compound: C#Cc1cccc(Nc2ncnc3cc(OCCOC)c(OCCOC)cc23)c1 [Erlotinib] + Cc1nc(Nc2ncc(C(=O)Nc3c(C)cccc3Cl)s2)cc(N2CCN(CCO)CC2)n1 [Dasatinib] (partner 0.075 µM)
Summary of the method: as §1

AT9283 + OSI-027 = compound: O=C(Nc1c[nH]nc1-c1nc2ccc(CN3CCOCC3)cc2[nH]1)NC1CC1 [AT9283] + COc1cccc2cc(-c3nc([C@H]4CC[C@H](C(=O)O)CC4)n4ncnc(N)c34)[nH]c12 [OSI-027] (partner 0.5 µM)
Summary of the method: as §1

Erlotinib + Trametinib = compound: C#Cc1cccc(Nc2ncnc3cc(OCCOC)c(OCCOC)cc23)c1 [Erlotinib] + CC(=O)Nc1cccc(-n2c(=O)n(C3CC3)c(=O)c3c(Nc4ccc(I)cc4F)n(C)c(=O)c(C)c32)c1 [Trametinib] (partner 0.02 µM)
Summary of the method: as §1

Erlotinib + Bortezomib = compound: C#Cc1cccc(Nc2ncnc3cc(OCCOC)c(OCCOC)cc23)c1 [Erlotinib] + CC(C)C[C@H](NC(=O)[C@H](Cc1ccccc1)NC(=O)c1cnccn1)B(O)O [Bortezomib] (partner 0.002 µM)
Summary of the method: as §1

Row | Cell Line | relative viability (Erlotinib + Olaparib; first compound 0.02 µM) | relative viability (Erlotinib + Olaparib; first compound 0.2 µM) | relative viability (Erlotinib + Olaparib; first compound 0.6325 µM) | relative viability (Erlotinib + Olaparib; first compound 2 µM) | relative viability (Erlotinib + Dasatinib; first compound 0.02 µM) | relative viability (Erlotinib + Dasatinib; first compound 0.2 µM) | relative viability (Erlotinib + Dasatinib; first compound 0.6325 µM) | relative viability (Erlotinib + Dasatinib; first compound 2 µM) | relative viability (AT9283 + OSI-027; first compound 0.003 µM) | relative viability (AT9283 + OSI-027; first compound 0.03 µM) | relative viability (AT9283 + OSI-027; first compound 0.09487 µM) | relative viability (AT9283 + OSI-027; first compound 0.3 µM) | relative viability (Erlotinib + Trametinib; first compound 0.02 µM) | relative viability (Erlotinib + Trametinib; first compound 0.2 µM) | relative viability (Erlotinib + Trametinib; first compound 0.6325 µM) | relative viability (Erlotinib + Trametinib; first compound 2 µM) | relative viability (Erlotinib + Bortezomib; first compound 0.02 µM) | relative viability (Erlotinib + Bortezomib; first compound 0.2 µM) | relative viability (Erlotinib + Bortezomib; first compound 0.6325 µM) | relative viability (Erlotinib + Bortezomib; first compound 2 µM)
1 | ChaGo-K-1 | 0.426 | 0.466 | 0.391 | 0.402 | 0.626 | 0.512 | 0.636 | 0.5 | 0.54 | 0.575 | 0.279 | 0.189 | 0.886 | 0.874 | 0.909 | 0.832 | 0.847 | 1.09 | 1.23 | 0.749
2 | NCI-H2347 | 0.601 | 0.587 | 0.526 | 0.562 | 0.371 | 0.309 | 0.289 | 0.296 | 0.444 | 0.427 | 0.404 | 0.296 | 0.268 | 0.482 | 0.275 | 0.285 | 0.759 | 0.873 | 1.26 | 0.659
3 | COR-L23 | 0.38 | 0.309 | 0.442 | 0.308 | 0.552 | 0.554 | 0.457 | 0.452 | 0.755 | 0.658 | 0.245 | 0.153 | 0.67 | 0.636 | 0.617 | 0.545 | 1.12 | 1.15 | 1.23 | 0.839
4 | NCI-H1792 | 0.407 | 0.299 | 0.464 | 0.383 | 0.875 | 0.655 | 0.981 | 0.608 | 0.727 | 0.868 | 0.742 | 0.404 | 0.435 | 0.423 | 0.47 | 0.446 | 0.897 | 0.958 | 1.18 | 0.783
5 | NCI-H520 | 0.413 | 0.343 | 0.37 | 0.335 | 0.188 | 0.186 | 0.245 | 0.234 | 0.256 | 0.198 | 0.185 | 0.172 | 0.689 | 0.666 | 0.744 | 0.687 | 0.75 | 0.261 | 0.722 | 0.455
6 | NCI-H3122 | 0.618 | 0.652 | 0.631 | 0.618 | 0.799 | 0.453 | 0.903 | 0.877 | 0.94 | 0.645 | 0.201 | 0.115 | 0.254 | 0.271 | 0.22 | 0.246 | 1.01 | 1.03 | 1.05 | 1.05
7 | LXF-289 | 1.15 | 1.12 | 1.12 | 1.04 | 0.295 | 0.274 | 0.239 | 0.183 | 0.81 | 0.769 | 0.166 | 0.0735 | 0.639 | 0.672 | 0.647 | 0.684 | 0.964 | 0.999 | 0.921 | 0.857
8 | NCI-H2126 | 0.872 | 0.851 | 0.729 | 0.718 | 0.595 | 0.435 | 0.444 | 0.374 | 0.635 | 0.808 | 0.75 | 0.389 | 0.569 | 0.467 | 0.441 | 0.496 | 1.12 | 1.11 | 0.964 | 0.769
9 | HOP-62 | 0.446 | 0.307 | 0.508 | 0.415 | 0.695 | 0.583 | – | 0.567 | 0.868 | 0.792 | 0.53 | 0.253 | 0.35 | 0.364 | 0.452 | 0.36 | 1.08 | 0.5 | 0.316 | 1.02
10 | NCI-H596 | 0.776 | 0.635 | 0.674 | 0.586 | 0.634 | 0.565 | 0.538 | 0.472 | 0.704 | 0.779 | 0.665 | 0.476 | 0.745 | 0.75 | 0.886 | 0.751 | 1.01 | 0.993 | 1.09 | 0.93
11 | NCI-H2023 | 0.46 | 0.43 | 0.54 | 0.432 | 0.639 | 0.408 | 0.623 | 0.44 | 0.389 | 0.456 | 0.148 | 0.104 | 0.558 | 0.369 | 0.418 | 0.32 | 0.949 | 0.816 | 1.14 | 0.789
12 | SK-LU-1 | 0.536 | 0.551 | 0.403 | 0.455 | 0.185 | 0.211 | 0.186 | 0.164 | 0.366 | 0.276 | 0.22 | 0.165 | 0.495 | – | 0.566 | 0.434 | 1.07 | 1.55 | 1.61 | 0.984
13 | NCI-H661 | 0.801 | 0.79 | 0.74 | 0.615 | 0.912 | 0.693 | 0.735 | 0.443 | 0.767 | 0.529 | 0.313 | 0.344 | 0.601 | 0.483 | 0.593 | 0.457 | 0.887 | 0.555 | 0.881 | 0.646
